Assay: xn = mol fraction of the nth substance listed
Conditions: Liquid, dividing mass by volume

CCCCCCCC [octane] + O=C=O
Conditions	mass density [kg/m3]
313.2 K, x2 = 0.11	730
313.2 K, x2 = 0.2134	729
313.2 K, x2 = 0.3377	729.3
313.2 K, x2 = 0.4342	711.9
313.2 K, x2 = 0.5534	692.7
313.2 K, x2 = 0.6752	663.5
313.2 K, x2 = 0.752	644.6
313.2 K, x2 = 0.8581	585
313.2 K, x2 = 0.9447	462.3
333.2 K, x2 = 0.1573	683.6
333.2 K, x2 = 0.206	678.5
333.2 K, x2 = 0.2891	670.1
333.2 K, x2 = 0.3593	660.5
333.2 K, x2 = 0.4296	657.3
333.2 K, x2 = 0.4956	641.9
333.2 K, x2 = 0.5915	627.8
333.2 K, x2 = 0.7413	556.8
333.2 K, x2 = 0.8558	516.5
333.2 K, x2 = 0.9383	436.1
353.2 K, x2 = 0.1452	658.6
353.2 K, x2 = 0.2452	651.5
353.2 K, x2 = 0.3596	642.5
353.2 K, x2 = 0.4373	635.4
353.2 K, x2 = 0.4948	621.3
353.2 K, x2 = 0.5783	614.8
353.2 K, x2 = 0.6237	600.1
353.2 K, x2 = 0.7761	585.8
353.2 K, x2 = 0.8255	560
353.2 K, x2 = 0.9154	458.2
373.2 K, x2 = 0.2172	550.7
373.2 K, x2 = 0.369	565.2
373.2 K, x2 = 0.5134	584.2
373.2 K, x2 = 0.5706	592.6
373.2 K, x2 = 0.6538	591.7
373.2 K, x2 = 0.7837	565.8
373.2 K, x2 = 0.8522	516.3
373.2 K, x2 = 0.902	425.1
393.2 K, x2 = 0.156	510.3
393.2 K, x2 = 0.2689	525.1
393.2 K, x2 = 0.3933	531.4
393.2 K, x2 = 0.4582	537.8
393.2 K, x2 = 0.522	544.7
393.2 K, x2 = 0.5922	546.8
393.2 K, x2 = 0.6738	551.1
393.2 K, x2 = 0.7464	553.2
393.2 K, x2 = 0.8146	519.8
393.2 K, x2 = 0.8728	400.2

— the NIST ThermoML archive (doi:10.1016/j.fluid.2006.05.014)
